# According to BindingDB's records for doi:10.1016/j.bmcl.2012.07.104 (University of Lisbon, 2012):
# Target: T1, Cathepsin B-like cysteine protease (Trypanosoma brucei, UniProt Q6R7Z5)
# T1 sequence (Q6R7Z5 whole entry): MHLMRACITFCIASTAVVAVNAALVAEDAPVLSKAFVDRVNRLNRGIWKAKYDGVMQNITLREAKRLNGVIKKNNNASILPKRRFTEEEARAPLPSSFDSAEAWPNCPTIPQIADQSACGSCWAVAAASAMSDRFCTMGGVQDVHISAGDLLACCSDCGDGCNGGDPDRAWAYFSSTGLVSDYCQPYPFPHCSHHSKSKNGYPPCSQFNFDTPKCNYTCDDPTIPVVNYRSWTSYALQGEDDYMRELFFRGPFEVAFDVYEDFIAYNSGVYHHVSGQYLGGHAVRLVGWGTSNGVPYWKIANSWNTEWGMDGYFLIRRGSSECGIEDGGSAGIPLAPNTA
# Assay: Inhibition of Trypanosoma brucei CatB
row,Structure (SMILES),IC50 [µM]
1,CC(C)NCCCNc1c2nc3ccccc3c-2n(C)c2ccccc12,62
2,CC(CN(C)C)Nc1c2nc3ccccc3c-2n(C)c2ccccc12 (stereo not given),> 100
3,CN(C)CC(C)(C)CNc1c2nc3ccccc3c-2n(C)c2ccccc12,62
4,CCN(CC)CCCC(C)Nc1c2nc3ccccc3c-2n(C)c2ccccc12 (stereo not given),> 100
5,Cn1c2c3ccccc3nc-2c(NC2CCN(Cc3ccccc3O)CC2)c2ccccc21,26
6,CC(C)CN1CCC(Nc2c3nc4ccccc4c-3n(C)c3ccccc23)CC1,26

# More lines, now with the values ahead:
row,IC50 [µM],Structure (SMILES)
1,59,CCN(CC)Cc1ccc(Nc2c3nc4ccccc4c-3n(C)c3ccccc23)cc1O
2,59,Cn1c2c3ccccc3nc-2c(Nc2cccnc2)c2ccccc21
3,43,Cn1c2c3ccc(Cl)cc3nc-2c(NC2CCNCC2)c2ccc(Cl)cc21
4,59,Cn1c2c3ccccc3nc-2c(NC2CCNCC2)c2ccc(Cl)cc21
